Experimental findings from patent publication US10611740B2, “Aryl dihydro-2H-benzo[b][1,4]oxazine sulfonamide and related compounds for use as agonists of RORγ and the treatment of disease” (Lycera Corporation, priority 2015, dated 2020) are described below.

For one assay, the target named is T1, Gal4-RORγ-LBD (Homo sapiens, UniProt P51449).
T1 construct: expressed in transfected cells; host or cells: HEK-293 cells (pcDNA3.1neo plasmid)
T1 sequence (P51449 269-508 limits assumed): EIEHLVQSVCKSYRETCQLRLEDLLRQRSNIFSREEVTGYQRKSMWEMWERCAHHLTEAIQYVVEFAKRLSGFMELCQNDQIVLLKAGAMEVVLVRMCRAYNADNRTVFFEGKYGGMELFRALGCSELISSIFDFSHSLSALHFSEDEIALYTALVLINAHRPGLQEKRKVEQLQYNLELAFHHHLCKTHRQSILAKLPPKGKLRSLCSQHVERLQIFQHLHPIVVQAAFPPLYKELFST
Description: Gal4-RORγ Luciferase Reporter Assay in HEK-293T Cells. The format is cell-based. Conditions: HEK-293 cells. A digest of the protocol: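 HEK-293 cells were transiently co-transfected with Gal4-RORγ-LBD and pGL4.31 Gal4-luciferase, with ursolic acid added at 2 μM final. Compounds were incubated overnight at 37° C. in 0.2% DMSO and luminescence read with One-Glo. Max Response is the upper plateau of a 4-parameter logistic fit, with signal lacking ursolic acid or compound set to 100.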

In a further assay the target is T2, RORγ-LBD (Homo sapiens, UniProt P51449).
T2 construct: made in house; host or cells: SF9 cells (baculovirus)
T2 sequence (P51449 269-508 limits assumed): T1 sequence (P51449 269-508 limits assumed)
In words: RORγ-Ligand Binding Domain (LBD) TR-FRET Assay.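 As to TR-FRET Assay Max Response: 665/615 nm ratio relative to signal without ursolic acid or compound set at 100.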 It is filed as biochemical. A digest of the protocol: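 His-tagged RORγ-LBD from SF9 baculovirus lysate, ~3 nM final, in 50 mM Tris pH 7.0, 50 mM KCl, 1 mM EDTA, 0.1 mM DTT, 0.01% BSA. Biotinylated SRC1 LXXLL peptide at 200 nM final with 2 μM ursolic acid; TR-FRET read-out, 1% DMSO final.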
In general terms: TR-FRET usually uses a lanthanide donor and a delayed reading to cut background.

Setting [1] is: luciferase reporter, with 2 μM ursolic acid.

Broadly, the EC50 is the midpoint of the concentration-response curve. The low end stands for a more potent agent, the high end for a less potent agent. As to `Cc1cnc(-c2ccc3c(c2)N(S(=O)(=O)c2cccc(C(F)(F)F)c2)C[C@H](CCC(=O)O)O3)o1` [Compound 26, (S)-3-(6-(5-methyloxazol-2-yl)-4-((3-(trifluoromethyl)phenyl)sulfonyl)-3,4-dihydro-2H-benzo[b][1,4]oxazin-2-yl)propanoic acid], at Gal4-RORγ-LBD (setting [1]), the EC50 was in the range of 500 to 5000 nM and the “Gal4-RORγ Assay Max Response” value is given as “* (The symbol “*” indicates a value in the range of 25 to 90)”. For the same molecule, at RORγ-LBD, the EC50 was in the range of 500 to 5000 nM and the “TR-FRET Assay Max Response” value is listed as “*** (The symbol “***” indicates a value in the range of greater than 150 to 200)”.

Regarding `O=C(O)C1(C[C@H]2CN(S(=O)(=O)c3cccc(C(F)(F)F)c3)c3cc(-c4cccc(Cl)c4F)ccc3O2)CCOCC1` [Compound 78F, (S)-4-((6-(3-chloro-2-fluoro-phenyl)-4-((3-(trifluoromethyl)-phenyl)sulfonyl)-3,4-dihydro-2H-benzo[b][1,4]oxazin-2-yl)methyl)tetrahydro-2H-pyran-4-carboxylic acid], on Gal4-RORγ-LBD (2 μM ursolic acid), the EC50 was under 500 nM and the “Gal4-RORγ Assay Max Response” value is on record as “** (The symbol “**” indicates a value in the range of greater than 90 to 150)”. Besides, at RORγ-LBD, the EC50 was under 500 nM and the “TR-FRET Assay Max Response” value is on record as “** (The symbol “**” indicates a value in the range of greater than 90 to 150)”.

For the molecule `Cc1cccc(-c2ccc3c(c2)N(S(=O)(=O)c2cccc(C(F)(F)F)c2)C[C@H](CCC(=O)O)O3)c1C` [Compound 2BR, (S)-3-(6-(2,3-dimethylphenyl)-4-((3-(trifluoromethyl)phenyl)-sulfonyl)-3,4-dihydro-2H-benzo[b][1,4]oxazin-2-yl)propanoic acid], at Gal4-RORγ-LBD (2 μM ursolic acid), the EC50 is under 500 nM and the “Gal4-RORγ Assay Max Response” value is given as “** (The symbol “**” indicates a value in the range of greater than 90 to 150)”. Further, at RORγ-LBD, the EC50 was under 500 nM and the “TR-FRET Assay Max Response” value was “*** (The symbol “***” indicates a value in the range of greater than 150 to 200)”.

With `COc1c(Cl)cccc1-c1ccc2c(c1)N(S(=O)(=O)c1cccc(C(F)(F)F)c1)C[C@H](CCC(=O)O)O2` [Compound 2AC, (S)-3-(6-(3-chloro-2-methoxy-phenyl)-4-((3-(trifluoromethyl)-phenyl)sulfonyl)-3,4-dihydro-2H-benzo[b][1,4]oxazin-2-yl)propanoic acid], at Gal4-RORγ-LBD (setting [1]), the EC50 was under 500 nM and the “Gal4-RORγ Assay Max Response” value is recorded as “*** (The symbol “***” indicates a value in the range of greater than 150 to 200)”. At RORγ-LBD, the EC50 is under 500 nM and the “TR-FRET Assay Max Response” value was “**** (The symbol “****” indicates a value greater than 200)”.

Take `CC(C)(C[C@H]1CN(S(=O)(=O)c2cccc(C(F)(F)F)c2)c2cc(-c3cccc(C(F)(F)F)c3Cl)ccc2O1)C(=O)O` [Compound 32AA, (S)-3-(6-(2-chloro-3-(trifluoromethyl)phenyl)-4-((3-(trifluoromethyl)phenyl)sulfonyl)-3,4-dihydro-2H-benzo[b][1,4]-oxazin-2-yl)-2,2-dimethyl-propanoic acid]: at Gal4-RORγ-LBD (2 μM ursolic acid), the EC50 was under 500 nM and the “Gal4-RORγ Assay Max Response” value was “** (The symbol “**” indicates a value in the range of greater than 90 to 150)”. At RORγ-LBD, the EC50 was under 500 nM and the “TR-FRET Assay Max Response” value is “**** (The symbol “****” indicates a value greater than 200)”.

With `CC(C)(C[C@H]1CN(S(=O)(=O)c2cccc(C(F)(F)F)c2)c2cc(-c3cc(F)cc(OC(F)F)c3F)ccc2O1)C(=O)O` [Compound 32BG, (S)-3-(6-(3-(difluoromethoxy)-2,5-difluorophenyl)-4-((3-(trifluoromethyl)phenyl)sulfonyl)-3,4-dihydro-2H-benzo[b][1,4]-oxazin-2-yl)-2,2-dimethyl-propanoic acid], at Gal4-RORγ-LBD (2 μM ursolic acid), the EC50 is under 500 nM and the “Gal4-RORγ Assay Max Response” value is reported as “** (The symbol “**” indicates a value in the range of greater than 90 to 150)”. Also, at RORγ-LBD, the EC50 is under 500 nM and the “TR-FRET Assay Max Response” value is reported as “** (The symbol “**” indicates a value in the range of greater than 90 to 150)”.

Consider `COc1cc(S(=O)(=O)N2C[C@H](CNC(=O)C(C)(C)O)Oc3ccc(-c4cc(F)ccc4F)cc32)ccc1F` [Compound 30Q, (S)-N-((6-(2,5-difluorophenyl)-4-((4-fluoro-3-methoxyphenyl)-sulfonyl)-3,4-dihydro-2H-benzo[b][1,4]oxazin-2-yl)methyl)-2-hydroxy-2-methylpropanamide], for which, at Gal4-RORγ-LBD (setting [1]), the EC50 is under 500 nM and the “Gal4-RORγ Assay Max Response” value is reported as “* (The symbol “*” indicates a value in the range of 25 to 90)”. On RORγ-LBD, the EC50 was under 500 nM and the “TR-FRET Assay Max Response” value was “**** (The symbol “****” indicates a value greater than 200)”.

Consider `Cn1cc(C(=O)NC[C@H]2CN(S(=O)(=O)c3cccc(C(F)(F)F)c3)c3cc(-c4cccc(C(F)(F)F)n4)ccc3O2)c(C(F)(F)F)n1` [Compound 30BN, (S)-1-methyl-3-(trifluoro-methyl)-N-((4-((3-(trifluoro-methyl)phenyl)sulfonyl)-6-(6-(trifluoromethyl)pyridin-2-yl)-3,4-dihydro-2H-benzo[b][1,4]-oxazin-2-yl)methyl)-1H-pyrazole-4-carboxamide], for which, at Gal4-RORγ-LBD (2 μM ursolic acid), the EC50 is over 10000 nM and the “Gal4-RORγ Assay Max Response” value is on record as “* (The symbol “*” indicates a value in the range of 25 to 90)”. In addition, at RORγ-LBD, the EC50 is 500 to 5000 nM and the “TR-FRET Assay Max Response” value is “*** (The symbol “***” indicates a value in the range of greater than 150 to 200)”.

Regarding `O=C(NC[C@H]1CN(S(=O)(=O)c2cccc(C(F)(F)F)c2)c2cc(-c3cc(F)ccc3F)ccc2O1)[C@@H]1C[C@@H]1F` [Compound 30AM, (1S,2S)-N-(((S)-6-(2,5-difluoro-phenyl)-4-((3-(trifluoromethyl)-phenyl)sulfonyl)-3,4-dihydro-2H-benzo[b][1,4]oxazin-2-yl)methyl)-2-fluorocyclo-propane-1-carboxamide], at Gal4-RORγ-LBD (setting [1]), the EC50 is under 500 nM and the “Gal4-RORγ Assay Max Response” value is “** (The symbol “**” indicates a value in the range of greater than 90 to 150)”. Besides, at RORγ-LBD, the EC50 was under 500 nM and the “TR-FRET Assay Max Response” value is listed as “**** (The symbol “****” indicates a value greater than 200)”.

For the molecule `COc1cccc(-c2ccc3c(c2)N(S(=O)(=O)c2cccc(C(F)(F)F)c2)C[C@H](CCC(=O)N2CCS(=O)(=O)CC2)O3)c1` [Compound 23M, (S)-1-(1,1-dioxidothio-morpholino)-3-(6-(3-methoxyphenyl)-4-((3-(trifluoromethyl)phenyl)sulfonyl)-3,4-dihydro-2H-benzo[b][1,4]-oxazin-2-yl)propan-1-one], on Gal4-RORγ-LBD (setting [1]), the EC50 was under 500 nM and the “Gal4-RORγ Assay Max Response” value is “*** (The symbol “***” indicates a value in the range of greater than 150 to 200)”. Besides, on RORγ-LBD, the EC50 was under 500 nM and the “TR-FRET Assay Max Response” value was “**** (The symbol “****” indicates a value greater than 200)”.

With `O=C(O)C1(C[C@H]2CN(S(=O)(=O)c3cccc(C(F)(F)F)c3)c3cc(-c4cc(F)cc(OC(F)F)c4)ccc3O2)CCC1` [Compound 32BH, (S)-1-((6-(3-(difluoromethoxy)-5-fluorophenyl)-4-((3-(trifluoro-methyl)phenyl)sulfonyl)-3,4-dihydro-2H-benzo[b][1,4]oxazin-2-yl)methyl)cyclobutane-l-carboxylic acid], on Gal4-RORγ-LBD (2 μM ursolic acid), the EC50 lay within 500 to 5000 nM and the “Gal4-RORγ Assay Max Response” value is “** (The symbol “**” indicates a value in the range of greater than 90 to 150)”. On RORγ-LBD, the EC50 is under 500 nM and the “TR-FRET Assay Max Response” value is given as “*** (The symbol “***” indicates a value in the range of greater than 150 to 200)”.

Take `O=C(NC[C@H]1CN(S(=O)(=O)c2cccc(C(F)(F)F)c2)c2cc(-c3cc(F)ccc3F)ccc2O1)C1(O)CC1` [Compound 30AG, (S)-N-((6-(2,5-difluorophenyl)-4-((3-(trifluoromethyl)phenyl)-sulfonyl)-3,4-dihydro-2H-benzo[b][1,4]oxazin-2-yl)methyl)-1-hydroxycyclo-propane-1-carboxamide]: on Gal4-RORγ-LBD (setting [1]), the EC50 was under 500 nM and the “Gal4-RORγ Assay Max Response” value is “** (The symbol “**” indicates a value in the range of greater than 90 to 150)”. Moreover, at RORγ-LBD, the EC50 was under 500 nM and the “TR-FRET Assay Max Response” value is on record as “*** (The symbol “***” indicates a value in the range of greater than 150 to 200)”.

As to `O=C(O)[C@@H]1CCCN1C(=O)NCC[C@H]1CN(S(=O)(=O)c2cccc(C(F)(F)F)c2)c2cc(-c3cc(F)ccc3F)ccc2O1` [Compound 23V, ((2-((S)-6-(2,5-difluorophenyl)-4-((3-(trifluoromethyl)phenyl)-sulfonyl)-3,4-dihydro-2H-benzo[b][1,4]oxazin-2-yl)ethyl)carbamoyl)-L-proline], at Gal4-RORγ-LBD (setting [1]), the EC50 lay within 500 to 5000 nM and the “Gal4-RORγ Assay Max Response” value is listed as “** (The symbol “**” indicates a value in the range of greater than 90 to 150)”. Moreover, at RORγ-LBD, the EC50 is under 500 nM and the “TR-FRET Assay Max Response” value is reported as “**** (The symbol “****” indicates a value greater than 200)”.
